In patent US20260325653A1, “HETEROBIFUNCTIONAL SMALL MOLECULES THAT DEUBIQUITINYLATE AND STABILIZE TARGET PROTEINS BY RECRUITING USP7” (ICAHN SCHOOL OF MEDICINE AT MOUNT SINAI, priority 2023, published 2026):

System: CFTR mRNA
Assay: RT-qPCR analysis of CFTR mRNA levels in CFBE41o− 4.7 ΔF508-CFTR cells
Format: cell-based, human
Settings: 10 μM, 24 h

In the case of `Cc1ccc(NC(=O)C2(c3ccc4c(c3)OC(F)(F)O4)CC2)nc1-c1cccc(C(=O)NCCCCCCCCCNC(=O)CNCc2ccc(-c3c4ncn(CC5(O)CCN(C(=O)C[C@@H](C)c6ccccc6)CC5)c(=O)c4nn3C)cc2)c1` [MS6869, (R)-3-(6-(1-(2,2-difluorobenzo[d][1,3]dioxol-5-yl)cyclopropane-1-carboxamido)-3-methylpyridin-2-yl)-N-(9-(2-((4-(6-((4-hydroxy-1-(3-phenylbutanoyl)piperidin-4-yl)methyl)-2-methyl-7-oxo-6,7-dihydro-2H-pyrazolo[4,3-d]pyrimidin-3-yl)benzyl)amino)acetamido)nonyl)benzamide], the “mRNA levels of CFTR” value is reported as “do not affect the mRNA levels of CFTR”.
